Data: patent US20040175419A1, “Control of compactibility through cystallization” (priority 2001, published 2004)
One block for each compound: values may come before it.

Assays:
Type in all cases: physicochemical
[1] = Compactability (slope of tensile strength versus compression pressure) of 80% API powder blend compressed on an Instron; settings: for compactability of the powder blend: 80% bulk drug and 20% excipient
Description: In order to evaluate the compressibility and compactability of all API lots generated by modifying the crystallization process, a blend of 80% API, 19.5% microcrystalline cellulose and 0.5% magnesium stearate was prepared by mixing in a tumble mixer for 5 minutes. Each mixture was then compressed on an Instron (Universal Stress-Strain Analyzer) using a 0.5 inch diameter tooling (upper and lower punches and die) at a speed of 100 mm/min at compression forces of 5, 10, 15, 20 and 25 kN each for a replicate of three tablets. The tablet dimensions were measured using a digital Vernier calliper and the strength of the tablets were determined using an Erweka hardness tester. The volume of the tablet can be calculated from the tablet dimensions normalized for the true density of the mixture being compressed. The compressibility curves are generated by plotting the solid fraction of the tablet generated at each compression pressure versus the respective compression pressure. The area under such a curve represents the extent of volume reduction. The force required to break the tablets is normalized for the area of the tablet to obtain the tensile strength value. Slopes for profiles of tensile strength versus the compression pressure represent the compactability of the material while the area under the curve of tensile strength versus the solid fraction of the tablets represents the extent of compaction or toughness of the material.

[2] = Bonding Index calculated from tensile strength and dynamic indentation hardness
Text: The Bonding Index of the material can be calculated from the tensile strength measurements as well as the dynamic indentation hardness measurements described above using the equation shown below: [formula]
The highest bonding index value observed today is that of microcrystalline cellulose Avicel PH 101 which is 0.04. The bonding index of Lot # 2 was 0.034±0.001.

[3] = Crystallinity by X-ray diffraction after milling; settings: milled API, FIG. 4
Text: This amorphization through the milling process can lead to chemical instability of the API. […] This clearly illustrated that modification of the crystallization process parameters to achieve higher compactability of the API is the preferred choice.

[4] = Agglomerate size of API crystallized at different supersaturation
Description: The crystallization parameters and seeding conditions (using “as is” API at 0.1-0.2%) described in the procedure outlined in Table 1 was adopted as a starting point for modifications. By changing the ratio of solvent/antisolvent (isopropyl acetate/heptane) in step 3 (Table 1) from 1.67 to 1.0 and varying the pot temperature from 80 to 50° C., the degree of supersaturation was increased by a factor of 5 (from about 3.5 to about 17.5). The materials made from these conditions are generally agglomerates formed by a cluster of primary crystals plus the conjunction material which glue these crystals together.
At low supersaturation, large agglomerates (500-1000 μm) with large primary crystals (also large) were obtained. At high supersaturation the procedure generates small agglomerates (200-300 μm) with smaller primary crystals. This is consistent with other crystallization systems, in which nucleation is rate limiting, where high supersaturation favors the formation of agglomerates and mild supersaturation results in elementary crystals. Generally, these agglomerated materials compact quite poorly and create difficulties for large scale, high speed tablet manufacture. […] The manipulation of supersaturation was consequently not pursued further. […]

[5] = Solid-state stability of crystal forms; settings: compared with forms 5, 6, 7
Text: Due to the unique structure of the API material at least four different groups of crystal structures were observed (forms 4, 5, 6, 7) and analyzed by single crystal x-ray. […] Orthorhombic Form 6 consisted of a group of isostructural (1:1) solvates which accommodates solvents such as EtOAc, acetone and MEK. […] An exhaustive study of API crystallization on the feasibility of various solvents, control of polymorphs, and robustness of process concluded that the selected form could be consistently produced and kept stable in iPrOAc (or BuOAc)/Heptane (or Cyclohexane), following which a reproducible crystallization procedure in the iPrOAc/heptane solvent system was developed and implemented. This procedure, associated with the aminolysis of penultimate compound (Chemical Abstracts Systematic Name, (αS)-α-(Benzoylthio)-3,4,4-trimethyl-2,5-dioxo-1-imidazolidinebutanoyl-L-leucyl-N,3-dimethyl-L-valinamide), is successful in purging undesirable side products/impurities such as α,α′-Dithiobis[N-[1-[[[2,2-dimethyl-1-[(methylamino)carbonyl]propyl]amino]-carbonyl]-3-methylbutyl]-3,4,4-trimethyl-2,5-dioxo-1-imidazolidinebutanamide] which is the S,S′-dimer of the API. The crystallization procedure is further described in Table 1.

[6] = Brittle fracture index (BFI) from compacts with and without a 1 mm hole; settings: square compacts; scale 0 to 1
Description: Similarly, the tensile strength is determined for square compacts that are prepared with a magnified flaw using the tri-axial decompression press and a upper punch having a 1 mm diameter pin spring loaded on its surface. This pin facilitates the introduction of a 1 mm diameter hole in the center of the compact. The tensile strength values of the compacts with and without a hole are used to evaluate the brittle fracture index (BFI) of the material as shown below: [formula]
Where, σT is the tensile strength of the square compacts without a hole in the center and σTo is the tensile strength of the square compacts with a 1 mm hole in the center that acts as a stress concentrator.

[7] = Tensile strength of square compacts from tri-axial decompression press (Hiestand tablet indices); settings: square compacts prepared at a solid fraction of 0.85
Description: In order to characterize the deformation mechanism of the API, Hiestand's tablet indices (see, E. N. Hiestand and D. P. Smith, Powder Technology, 38, pp 145-159 (1984) hereby incorporated by reference) were evaluated. The identical procedure as developed by E. N. Hiestand, at the Pharmacia and Upjohn company was adapted for evaluating the deformation properties of the API. In brief, square shaped compacts (1.97 cm^2) were prepared using a tri-axial decompression Loomis Engineering press. This tri-axial press facilitates compression pressure relief in three dimensions as opposed to […] as in the uni-axial press. […] Through tri-axial decompression it is possible to produce virtually flawless compacts. The API was compressed with the procedure describe above to produce compacts having a relative density or solid fraction of 0.85. The compacts were then subjected to tensile strength testing on an Instron stress-strain analyzer at a cross head speed of about 0.8 mm/min. This speed allowed the time constant between the peak stress and 1/e times the peak stress to be a constant of 10 seconds. […]
where, σ is the tensile strength calculated and F is the force required to initiate crack propagation in the compact and l and b are the length and breadth of the compact, respectively. […]

[8] = Dynamic indentation hardness by pendulum impact apparatus; settings: square compacts without a hole
Description: The square compacts (without a hole) are then subjected to a dynamic indentation hardness evaluation using a pendulum impact apparatus as described in Tablet Indices^11. The velocity at which the pendulum sphere impacts the compact as well as the speed with which the pendulum sphere is rebound from the compact is recorded. The indentation made on the compact surface by the procedure described above is measured with a surface analyzer that facilitates computation of the chordal radius of the indentation. These measurements are then used to calculate the dynamic indentation hardness of the material using the equation described below: [formula]
where, m and r are the mass and radius of the indenting sphere, respectively and hi and hr are the inbound and rebound heights, respectively and a is the chordal radius of the indentation created on the compact surface. G is acceleration due to gravity. […] This value is much lower than that of the standard compressible filler, Avicel PH 102 that has a hardness of 352 MN/m^2. […] The hardness value for Lot # 2 was 52.9 MN/M^2±8.2 MN/M^2. The increase in hardness of the material from the optimized crystallization process is not significant enough to change the conclusion drawn earlier about its ductility.

compactability ([1]; 1% ground seeds, with sonication): 12.3 kPa/MPa | product compactability ([1]; 50-g sample, 1% AirJet-milled seeds): 4.2 kPa/MPa | product compactability ([1]; 50-g sample, 1% ball-milled seeds): 5.9 Kpa/MPa | product compactability ([1]; 50-g sample, 1% ground seeds, without sonication): 10.5 kPa/MPa | product compactability ([1]; 50-g sample, 1% seeds crystallized from a ground seeded batch): 5.3 kPa/MPa | compactability ([1]; 50-g sample, 1.5% ball-milled seeds): 7.0 kPa/MPa | compactability ([1]; 50-g sample, 4% ground seeds): 14.4 kPa/MPa | improvement in compactability over material generated by the current process ([1]; 50-g sample, 4% ground seeds): ~10 fold | compactability ([1]; 50-g sample, 5% ground seeds): 12.6 kPa/MPa | powder blend compactability ([1]; 50 g scale, crystallization seeded with 5% large agglomerates): 3.65 kPa/MPa | compactability of the powder blend ([1]; 100 Kg scale, "as is" material at 1.5% seed loading): 2.8-3.4 kPa/Mpa | compactability of the powder blend ([1]; "as is" seed, 0.1% seed loading (representative)): 1.4-1.7 kPa/Mpa | change of compactability after milling ([1]; milled API, FIG. 3): gain in compactability | bonding index [2]: 0.025±0.001 | change of crystallinity after milling (X-ray diffraction patterns) [3]: reduction in the crystallinity | agglomerate size ([4]; high supersaturation): 200-300 μm | agglomerate size ([4]; low supersaturation): 500-1000 μm
Structure (SMILES): CNC(=O)[C@@H](NC(=O)[C@H](CC(C)C)NC(=O)[C@@H](S)CCN1C(=O)N(C)C(C)(C)C1=O)C(C)(C)C [API, N-[(2S)-2-Mercapto-1-oxo-4-(3,4,4-trimethyl-2,5-dioxo-1-imidazolidinyl)butyl]-L-leucyl-N,3-dimethyl-L-valinamide]

Structure (SMILES): CNC(=O)[C@@H](NC(=O)[C@H](CC(C)C)NC(=O)[C@@H](S)CCN1C(=O)N(C)C(C)(C)C1=O)C(C)(C)C [Form 4, N-[(2S)-2-Mercapto-1-oxo-4-(3,4,4-trimethyl-2,5-dioxo-1-imidazolidinyl)butyl]-L-leucyl-N,3-dimethyl-L-valinamide]
stability of crystal structure in the solid state [5]: did not transform/decompose to other crystalline structures in the solid state

brittle fracture index (BFI) [6]: 0.14±0.03 | tensile strength ([7]; listed as MMPI Lot# 1): 90.46 N/cm^2 | dynamic indentation hardness [8]: 35.8 MN/m^2
Structure (SMILES): CNC(=O)[C@@H](NC(=O)[C@H](CC(C)C)NC(=O)[C@@H](S)CCN1C(=O)N(C)C(C)(C)C1=O)C(C)(C)C [Lot# 1, N-[(2S)-2-Mercapto-1-oxo-4-(3,4,4-trimethyl-2,5-dioxo-1-imidazolidinyl)butyl]-L-leucyl-N,3-dimethyl-L-valinamide]

bonding index [2]: 0.034±0.001 | brittle fracture index (BFI) [6]: 0.20±0.02 | tensile strength [7]: 181.90 N/cm^2 | dynamic indentation hardness [8]: 52.9 MN/m^2
Structure (SMILES): CNC(=O)[C@@H](NC(=O)[C@H](CC(C)C)NC(=O)[C@@H](S)CCN1C(=O)N(C)C(C)(C)C1=O)C(C)(C)C [Lot# 2, N-[(2S)-2-Mercapto-1-oxo-4-(3,4,4-trimethyl-2,5-dioxo-1-imidazolidinyl)butyl]-L-leucyl-N,3-dimethyl-L-valinamide]
